Relative spheroid diameter data for 1 compound are collected here from PMC10759609, “A novel PDPN antagonist peptide CY12-RP2 inhibits melanoma growth via Wnt/β-catenin and modulates the immune cells” (Journal of Experimental & Clinical Cancer Research : CR, 2024).

Each structure is given as a SMILES string. Peptide text beside a SMILES is read from it.

For the assay, the system named is A375 cellular spheroid. Put plainly: 3D spheroid diameter, A375. Type of assay: cell-based. The settings on record: A375 spheroids; 0, 50, 100, 200 μM, 5 days. As to the method:
A375 and A875 cells were collected and suspended in Matrigel (Corning) with a density of 1.0 × 10^7 cells per mL. 3D spheroids were fabricate using cell-processing system that have two pumps. One pump was loaded with Matrigel and another with fluorocarbon oil (3 M NOVEC, HFE-7000). The flow rate of Matrigel was 20 μL/min and the fluorocarbon oil rate was 30 μL/min. The 3D spheroids were incubated at 37 °C with 5% CO2 after printing. Culturing medium was DMEM medium supplemented with 10% FBS, and 100 IU of penicillin and […] streptomycin. The medium was changed every 3 days. Afterward, the 3D spheroids were harvested for drug analysis.
Prepared melanoma cells spheroids were plated in 48-well plates. Following incubation for 3 days, the spheroids were exposed to different concentrations (0, 50, 100 and 200 μM) of CY12-RP2, and changes in spheroid diameter were detected after 5 days of treatment. Additionally, melanoma cell spheroids were treated with various concentrations of CY12-RP2 as described previously, and after 72 h, the spheroids were stained for immunofluorescence with caspase 3 primary antibody. The specific experimental procedures refer to the following immunofluorescence analysis. Additionally, we co-cultured peptide-stimulated PBMC with spheroids to determine the tumor-killing ability of activated PBMC.

In the case of `CC(C)C[C@H](NC(=O)[C@H](Cc1ccc(O)cc1)NC(=O)[C@@H](N)[C@@H](C)O)C(=O)N[C@@H](CS)C(=O)N[C@H](C(=O)N[C@@H](C)C(=O)N[C@@H](CS)C(=O)N[C@@H](CC(=O)O)C(=O)N[C@@H](Cc1ccc(O)cc1)C(=O)N[C@H](C(=O)N[C@@H](Cc1c[nH]cn1)C(=O)N[C@@H](Cc1c[nH]cn1)C(=O)O)[C@@H](C)O)[C@@H](C)O` [CY12-RP2] (H-TYLCTACDYTHH-OH; N-terminus and C-terminus assumed), the relative spheroid diameter result is “significantly diminished with increasing CY12-RP2 concentration”.
